Tests used:
[1] = test system: EpiAirway™ Cell Membrane (mucosal epithelial cell layer); experiment: Permeation kinetics across the in vitro epithelial tissue model
Description: (§1) The EpiAirway™ system was developed by MatTek Corp (Ashland, Mass.) as a model of the pseudostratified epithelium lining the respiratory tract. The epithelial cells are grown on porous membrane-bottomed cell culture inserts at an air-liquid interface, which results in differentiation of the cells to a highly polarized morphology. The apical surface is ciliated with a microvillous ultrastructure and the epithelium produces mucus (the presence of mucin has been confirmed by immunoblotting). The inserts have a diameter of 0.875 cm, providing a surface area of 0.6 cm^2. The cells are plated onto the inserts at the factory approximately three weeks before shipping. One “kit” consists of 24 units.
(§2) A. A “kit” of 24 EpiAirway™ units can routinely be employed for evaluating five different formulations, each of which is applied to quadruplicate wells. Each well is employed for determination of permeation kinetics (4 time points), transepithelial electrical resistance (TER). An additional set of wells is employed as controls, which are sham treated during determination of permeation kinetics, but are otherwise handled identically to the test sample-containing units for determinations of transepithelial resistance and viability.
(§3) B. In all experiments, the mucosal delivery formulation to be studied is applied to the apical surface of each unit in a volume of 100 μL, which is sufficient to cover the entire apical surface. An appropriate volume of the test formulation at the concentration applied to the apical surface (no more than 100 μL is generally needed) is set aside for subsequent determination of concentration of the active material by ELISA or other designated assay.
(§4) D. In order to minimize potential sources of error and avoid any formation of concentration gradients, the units are transferred from one 0.9 mL-containing well to another at each time point in the study. These transfers are made at the following time points, based on a zero time at which the 100 μL volume of test material was applied to the apical surface: 15 minutes, 30 minutes, 60 minutes, and 120 minutes.
(§5) F. At the completion of each time point, the medium is removed from the well from which each unit was transferred, and aliquotted into two tubes (one tube receives 700 μL and the other 200 μL) for determination of the concentration of permeated test material and, in the event that the test material is cytotoxic, for release of the cytosolic enzyme, lactate dehydrogenase, from the epithelium. These samples are kept in the refrigerator if the assays are to be conducted within 24 hours, or the samples are subaliquotted and kept frozen at −80° C. until thawed once for assays. Repeated freeze-thaw cycles are to be avoided.
(§6) EIA kit (p/n S-1178(EIAH6101) was purchased from Peninsula Laboratories Inc. (Division of BACHEM, San Carlos, Calif., 800-922-1516). 17×120 mm polypropylene conical tubes (p/n 352097, Falcon, Franklin Lakes, N.J.) were used for all sample preparations. Eight standards were used for PTH quantitation. The rest of the assay procedure was the same as the kit inserts.
(§7) The instant study was designed to evaluate the effect of PN159 itself or in combination with additional permeation enhancers on PTH permeation. The PN159 concentrations evaluated are 25, 50, and 100 μM. The additional permeation enhancers are 45 mg/ml M-β-CD, 1 mg/ml DDPC, and 1 mg/ml EDTA. Sorbitol was used as a tonicifier (146-190 mM) to adjust the osmolarity of formulations to 220 mOsm/kg. The formulation pH was fixed at 4.5. PTH was chosen as a model peptide in this example. 2 mg/ml PTH was combined with PN159 with or without additional permeation enhancers. The combination was tested using an in vitro epithelial tissue model to monitor PTH permeation, transepithelial electrical resistance (TER), and the cytotoxicity of the formulation by LDH assay.
(§8) The effect of PN159 on permeation of MC-4RA was evaluated in this study.

[2] = as above; conditions: human, pH 5, Papp; for Papp at 120 min, 40 mg/mL: galantamine 40 mg/mL pH 5.0, calcitonin 1 mg/mL pH 3.5, PTH1-34 1 mg/mL pH 4.5
Description: as §1, §2, §3, §4, §5, §6, §7, §8

[3] = test system: EpiAirway™ Cell Membrane (mucosal epithelial cell layer); experiment: Transepithelial electrical resistance (TER), EpiAirway in vitro epithelial tissue model; type: cell-based; conditions: Example 2, PTH formulation study, applied to apical side
From the text: One “kit” consists of 24 units.
A. Respiratory airway epithelial cells form tight junctions in vivo as well as in vitro, and thereby restrict the flow of solutes across the tissue. These junctions confer a transepithelial resistance of several hundred ohms×cm^2 in excised airway tissues. In the MatTek EpiAirway™ units, the transepithelial electrical resistance (TER) is reported by the manufacturer to be routinely around 1000 ohms×cm^2. […] The porous membrane-bottomed units without cells, conversely, provide only minimal transmembrane resistance (approximately 5-20 ohms×cm^2).
B. Accurate determinations of TER require that the electrodes of the ohmmeter be positioned over a significant surface area above and below the membrane, and that the distance of the electrodes from the membrane be reproducibly controlled. The method for TER determination recommended by MatTek and employed for all experiments herein employs an “EVOM”™ epithelial voltohmmeter and an “ENDOHM”™ tissue resistance measurement chamber from World Precision Instruments, Inc., Sarasota, Fla.
D. Determinations of TER are made with 1.5 mL of PBS in the chamber and 350 μL of PBS in the membrane-bottomed unit being measured. The top electrode is adjusted to a position just above the membrane of a unit containing no cells (but containing 350 μL of PBS) and then fixed to ensure reproducible positioning. The resistance of a cell-free unit is typically 5-20 ohms×cm^2 (“background resistance”).
G. The unit is gently blotted free of excess PBS on its exterior surface only before being placed into the chamber (containing a fresh 1.5 mL aliquot of PBS). An aliquot of 350 μL PBS is added to the unit before the top electrode is placed on the chamber and the TER is read on the EVOM meter.
I. The units are read in the following sequence: all sham-treated controls, followed by all formulation-treated samples, followed by a second TER reading of each of the sham-treated controls. All TER values are reported as a function of the surface area of the tissue.
TER was calculated as: TER=(R1−Rb)×A Where R1 is resistance of the insert with a membrane, Rb is the resistance of the blank insert, and A is the area of the membrane (0.6 cm^2). The effect of pharmaceutical formulations comprising intranasal delivery-enhancing agents, for example, permeabilizing peptides as measured by TER across the EpiAirway™ Cell Membrane (mucosal epithelial cell layer). Permeabilizing peptides are applied to the EpiAirway™ Cell Membrane at a concentration of 1.0 mM. A decrease in TER value relative to the control value (control=approximately 1000 ohms-cm^2; normalized to 100.) indicates a decrease in cell membrane resistance and an increase in mucosal epithelial cell permeability.
(§9) The formulation pH was fixed at 4.5.

[4] = test system: EpiAirway™ Cell Membrane (mucosal epithelial cell layer); experiment: LDH assay (cytotoxicity), in vitro epithelial tissue model; type: cell-based; conditions: Example 2, PTH study; PN159 25-100 μM
Description: Repeated freeze-thaw cycles are to be avoided.
The amount of cell death was assayed by measuring the loss of lactate dehydrogenase (LDH) from the cells using a CytoTox 96 Cytoxicity Assay Kit (Promega Corp., Madison, Wis.). Fifty microliters of sample was loaded into a 96-well assay plates. Fresh, cell-free culture medium was used as a blank. 50 μl of substrate solution was added to each well and the plates incubated for 30 minutes at room temperature in the dark. Following incubation, 50 μl of stop solution was added to each well and the plates read on an optical density plate reader at 490 nm.
as §9

Molecule	Papp ([1]; [PN159] 0 μM, galantamine 40 mg/mL pH 5.0, calcitonin 1 mg/mL pH 3.5, PTH1-34 1 mg/mL pH 4.5, PYY3-36 1 mg/mL, pH was 5.0)	increase in Papp ([1]; drug in the presence of PN159 vs drug alone)	Papp at 120 min, 40 mg/mL ([2]; [PN159] 0 μM, PYY3-36 1 mg/mL, pH was 5.0)	Papp at 120 min, 40 mg/mL ([2]; [PN159] 25 μM, PYY3-36 1 mg/mL pH 7.0)	Papp at 120 min, 40 mg/mL ([2]; [PN159] 50 μM)	Papp at 120 min, 40 mg/mL ([2]; [PN159] 100 μM, PYY3-36 1 mg/mL pH 7.0)	Papp at 120 min, 40 mg/ml ([2]; in the presence of 25 nM PN159 (as printed in text))	Papp at 120 min, 40 mg/ml ([2]; in the presence of 50 nM PN159 (as printed in text))	Papp at 120 min, 40 mg/ml ([2]; in the presence of 100 nM PN159 (as printed in text))	TER reduction (in words) [3]	cytotoxicity (LDH) [4]
COc1ccc2c3c1O[C@H]1C[C@@H](O)C=C[C@@]31CCN(C)C2 [Galantamine, galantamine, reference compound]	2.1 ×10⁻⁶ cm/s	2.5-3.5 fold	~2.1 ×10⁻⁶ cm/s	5.1 ×10⁻⁶ cm/s	6.2 ×10⁻⁶ cm/s	7.2 ×10⁻⁶ cm/s	5.1 ×10⁻⁶ cm/s	6.2 ×10⁻⁶ cm/s	7.2 ×10⁻⁶ cm/s		
Triton X [reference compound]										significant TER reduction	significant cytotoxicity

Source: US20060062758A1, “Tight junction modulator peptide PN159 for enhanced mucosal delivery of therapeutic compounds” (Nastech Pharmaceutical Comapny Inc., priority 2004, published 2006)
